Measurements: patent US12285421B2, “Uses of a 5-HT4 receptor agonist” (SUVEN LIFE SCIENCES LIMITED, priority 2018, dated 2025)

Tests used:
[1] = system: ovariectomized female Wistar rats; assay: Object recognition task, in vivo model for dementia due to menopause; set-up: species or system rat; details: ~12 months after surgery, dosed 60 min prior to trial-1, FIG. 1
Description: Bilateral ovariectomy surgery was carried out in 7-8 weeks old female rats. Briefly, animals were anesthetized using Avertin (2,2,2-tri bromo ethanol) at 150 mg/kg, i.p. and were lay down on the surgery table. A midline incision was given on the dorsal region below the rib cage and 1 cm lateral to the either side of midline, a small incision was given on fascia to locate the adipose fat supporting the ovaries. By slowly pulling out the fat tissue, the ovary was identified and excised following the uterine horn ligation with silk sutures. Fascia was also covered with sutures and the similar procedure was repeated on the other side. Superficial skin layers were sutured and gentamicin (15 mg/kg, s.c.) was given as antibiotic and meloxicam (1 mg/kg, i.m.) as analgesic with povidone iodine applied on superficial skin layers at last. Episodic memory which is a memory of autobiographical events contextual in relation to time, place etc. was assessed ˜12 months after the surgery using object recognition task. On experiment day 1, rats were transferred to experimental room for acclimatization. On experiment day 2, all groups of animals were habituated to their respective test arenas for a period of 30 min prior to trial-1. […] Discriminative index (b−a3/b+a3) was calculated and compared among the groups.

Male Wistar rats [2] = assay: Dominant Submissive Model (DSM) for depression; type: in vivo, rat; details: 3 mg/kg, p.o., submissive rats treated, significance in 5th week (p<0.05), FIG. 4
Description: A total of 220 male Wistar rats (110 pairs) of ˜150-200 g weight were selected. The animals were randomized on the basis of body weight and matched for body weight, pair wise. The pairs were habituated to the testing apparatus and milk for a period of 5 min per day for 5 days (first week). The animals were housed such that these pairs met only during the trial time. Each pair was given equal access to milk containing 9% sucrose in a beaker (10 mL), which was placed in an opening on the floor at the midpoint of the tunnel. During the second week, time spent in drinking the milk by a pair of rats was recorded and scored for a period of 5 min. Once the 5 min period was over, the rat pair was returned to their respective home cages.
Pairs, which met the above criteria were selected and randomized based on the dominance levels. Both the dominant and submissive animals of the control group were treated with vehicle (sterile water, 4 mL/kg, p.o.). […] During the test period (three weeks), time spent in drinking the milk was recorded for each animal of a pair for a period of 5 min. […] Dominance level (the average of difference in daily drinking score between the dominant and submissive partners during the testing period) was analyzed using repeated measure one way ANOVA followed by Tukey's test against its dominance level during 2nd week (FIG. 4).

serotonin = assay: In vivo brain microdialysis, serotonin modulation in ventral hippocampus; details: Compound-1 3 mg/kg, p.o. alone, rat ventral hippocampus
Description: Incorrect probe placement was considered as criteria to reject the data from animal.

Male Wistar rats [3] = assay: Object recognition task (NORT), MK-801 induced cognitive impairment; details: 0.3 and 1 mg/kg, p.o., FIG. 3
Description: During the familiarization phase, (T1), the rats were placed individually in the arena for 3 minutes, in which two identical objects (a1 and a2) were positioned 10 cm from the wall. Ninety minutes after T1, choice phase was performed. Rats were placed in the same arena as they were placed in T1 trial. During the choice phase (T2) rats were allowed to explore the arena for 3 minutes in presence of a copy of familiar object (a3) and one novel object (b).

## COCCCN1CCC(c2nnc(-c3nn(C(C)C)c4ccccc34)o2)CC1.O=C(O)C(=O)O [Compound-1, Isopropyl-3-{5-[1-(3-methoxypropyl)piperidin-4-yl]-[1,3,4]oxadiazol-2-yl}-1H-indazole oxalate]
[1]
  object recognition memory deficits: reversed
Male Wistar rats [2]
  dominance levels: decreased
serotonin
  increase in hippocampal serotonin levels above pre-dose levels: 22%
Male Wistar rats [3]
  MK-801 induced memory deficit: reversed
